From ChEMBL document CHEMBL5233281, “Design, synthesis and biological evaluation of novel 1,3,4,9-tetrahydropyrano[3,4-b]indoles as potential treatment of triple negative breast cancer by suppressing PI3K/AKT/mTOR pathway” (Bioorg Med Chem, 2021)
Calls of active or inactive are those of the source. The rule behind the calls is not given here.

Columns and labels:
BGC-823 = experiment: Antiproliferative activity against human BGC-823 cells assessed as inhibition of cell growth incubated for 72 hrs by CCK8 assay; format: functional, cell-based; conditions: BGC-823, 72 h
PC-3 = experiment: Antiproliferative activity against human PC-3 cells assessed as inhibition of cell growth incubated for 72 hrs by CCK8 assay; format: functional, cell-based; conditions: PC-3, 72 h
MCF7 = experiment: Antiproliferative activity against human MCF7 cells assessed as inhibition of cell growth incubated for 72 hrs by CCK8 assay; format: functional, cell-based; conditions: MCF7, 72 h
[1] = Antiproliferative activity against human MCF-10A cells assessed as inhibition of cell growth incubated for 72 hrs by CCK8 assay; format: toxicity, cell-based
[2] = Selectivity index, ratio of IC50 for antiproliferative activity against human MCF-10A cells to IC50 for antiproliferative activity against human MDA-MB-231 cells; format: toxicity, cell-based; conditions: MCF-10A cells and MDA-MB-231 cells, read-out: Ratio IC50
MDA-MB-231 [3] = experiment: Antiproliferative activity against human MDA-MB-231 cells assessed as inhibition of cell growth at 1 to 4 uM by CCK8 assay; format: functional, cell-based; conditions: dose 1-4 µM, time 24-96 hrs, TDE = time-dependent effect
MDA-MB-231 [4] = experiment: Antiproliferative activity against human MDA-MB-231 cells assessed as inhibition of cell growth measured after 24 to 96 hrs by CCK8 assay; format: functional, cell-based; conditions: dose 1-4 µM, time 24-96 hrs
MDA-MB-231 [5] = experiment: Induction of cell cycle arrest in human MDA-MB-231 cells assessed as accumulation of cells at G0/G1 phase at 1 uM incubated for 48 hrs by PI staining based flow cytometry (reference value: 48.33%); format: functional
MDA-MB-231 [6] = experiment: Induction of cell cycle arrest in human MDA-MB-231 cells assessed as accumulation of cells at G0/G1 phase at 2 uM incubated for 48 hrs by PI staining based flow cytometry (reference value: 48.33%); format: functional
MDA-MB-231 [7] = experiment: Induction of cell cycle arrest in human MDA-MB-231 cells assessed as accumulation of cells at G0/G1 phase at 4 uM incubated for 48 hrs by PI staining based flow cytometry (reference value: 48.33%); format: functional
MDA-MB-231 [8] = experiment: Induction of cell cycle arrest in human MDA-MB-231 cells assessed as downregulation of CDK4 protein expression at 1 to 4 uM incubated for 48 hrs by western blot analysis; format: functional, cell-based; conditions: dose 1-4 µM
MDA-MB-231 [9] = experiment: Induction of apoptosis in human MDA-MB-231 cells assessed as increase in apoptotic cells at 1 uM incubated for 48 hrs by AnnexinV-FITC/PI staining based flow cytometry (reference value: 5.24%); format: functional
MDA-MB-231 [10] = experiment: Induction of apoptosis in human MDA-MB-231 cells assessed as increase in Bax protein expression measured after 48 hrs by western blot analysis; format: functional, cell-based; conditions: dose 1-4 µM
MDA-MB-231 [11] = experiment: Induction of apoptosis in human MDA-MB-231 cells assessed as increase in cleaved caspase-9 protein expression at 1 to 4 uM incubated for 48 hrs by western blot analysis; format: functional, cell-based; conditions: dose 1-4 µM
MDA-MB-231 [12] = experiment: Induction of apoptosis in human MDA-MB-231 cells assessed as increase in cleaved caspase-8 protein expression at 1 to 4 uM incubated for 48 hrs by western blot analysis; format: functional, cell-based; conditions: dose 1-4 µM
MDA-MB-231 [13] = experiment: Induction of apoptosis in human MDA-MB-231 cells assessed as increase in cleaved caspase-3 protein expression at 1 to 4 uM incubated for 48 hrs by western blot analysis; format: functional, cell-based; conditions: dose 1-4 µM
MDA-MB-231 [14] = experiment: Induction of mitochondrial membrane potential depolarization in human MDA-MB-231 cells assessed as decrease in ratio of red to green fluorescence intensity at 1 to 4 uM incubated for 24 hrs by JC-1 staining based flow cytometry; format: functional, cell-based; conditions: dose 1-4 µM
MDA-MB-231 [15] = experiment: Induction of reactive oxygen species generation in human MDA-MB-231 cells incubated for 24 hrs by DCFH-DA staining based flow cytometry; format: functional, cell-based; conditions: dose 1-4 µM
MDA-MB-231 [16] = experiment: Induction of reactive oxygen species generation in human MDA-MB-231 cells at 1 uM incubated for 24 hrs by DCFH-DA staining based flow cytometry; format: functional, cell-based
MDA-MB-231 [17] = experiment: Induction of reactive oxygen species generation in human MDA-MB-231 cells at 4 uM incubated for 24 hrs by DCFH-DA staining based flow cytometry; format: functional, cell-based
MDA-MB-231 [18] = experiment: Depletion of intracellular GSH content in human MDA-MB-231 cells at 2 uM incubated for 48 hrs relative to control; format: functional
MDA-MB-231 [19] = experiment: Increase in intracellular Ca2+ level in human MDA-MB-231 cells at 1 to 4 uM incubated for 48 hrs by Fluo-4AM dye based flow cytometry; format: functional, cell-based; conditions: dose 1-4 µM
MDA-MB-231 [20] = experiment: Downregulation of Akt protein expression in human MDA-MB-231 cells incubated for 48 hrs by western blot analysis; format: functional, cell-based; conditions: dose 1-4 µM
MDA-MB-231 [21] = experiment: Downregulation of mTOR protein expression in human MDA-MB-231 cells incubated for 48 hrs by western blot analysis; format: functional, cell-based; conditions: dose 1-4 µM
[22] = Inhibition of PI3K/Akt/mTOR signaling in human MDA-MB-231 cells assessed as reduction in Akt phosphorylation at Ser473 residue incubated for 48 hrs by western blot analysis; format: cell-based; conditions: dose 1-4 µM
[23] = Inhibition of PI3K/Akt/mTOR signaling in human MDA-MB-231 cells assessed as reduction in Akt phosphorylation at Thr308 residue incubated for 48 hrs by western blot analysis; format: cell-based; conditions: dose 1-4 µM
[24] = Inhibition of PI3K/Akt/mTOR signaling in human MDA-MB-231 cells assessed as reduction in mTOR phosphorylation at Ser2448 residue incubated for 48 hrs by western blot analysis; format: cell-based; conditions: dose 1-4 µM
[25] = Inhibition of PI3K/Akt/mTOR signaling in human MDA-MB-231 cells assessed as reduction in mTOR phosphorylation at Ser2481 residue incubated for 48 hrs by western blot analysis; format: cell-based; conditions: dose 1-4 µM
[26] = Inhibition of PI3K/Akt/mTOR signaling in human MDA-MB-231 cells assessed as upregulation of PTEN expression incubated for 48 hrs by western blot analysis; format: cell-based; conditions: dose 1-4 µM
MDA-MB-231 [27] = experiment: Downregulation of PI3K protein expression in human MDA-MB-231 cells at 2 uM incubated for 72 hrs in presence of IGF-1 by western blot analysis; format: functional, cell-based
MDA-MB-231 [28] = experiment: Downregulation of Akt protein expression in human MDA-MB-231 cells at 2 uM incubated for 72 hrs in presence of IGF-1 by western blot analysis; format: functional, cell-based
[29] = Inhibition of PI3K/Akt/mTOR signaling in human MDA-MB-231 cells assessed as reduction in Akt phosphorylation at Ser473 residue at 2 uM incubated for 72 hrs in presence of IGF-1 by western blot analysis; format: cell-based
[30] = Inhibition of PI3K/Akt/mTOR signaling in human MDA-MB-231 cells assessed as reduction in Akt phosphorylation at Thr308 residue at 2 uM incubated for 72 hrs in presence of IGF-1 by western blot analysis; format: cell-based
[31] = Inhibition of PI3K/Akt/mTOR signaling in human MDA-MB-231 cells assessed as reduction in mTOR phosphorylation at Ser2448 residue at 2 uM incubated for 72 hrs by western blot analysis; format: cell-based
MDA-MB-231 [32] = experiment: Induction of apoptosis in human MDA-MB-231 cells assessed as increase in apoptotic cells at 2 uM incubated for 72 hrs in presence of IGF-1 by AnnexinV-FITC/PI staining based flow cytometry; format: functional

IC50 (BGC-823): 9.11 µM
IC50 (PC-3): 9.04 µM
IC50 (MCF7): 7.89 µM
SMILES: Fc1cc(F)cc(C2OCCc3c2[nH]c2ccccc32)c1 (stereo not given)
IC50 at 72 h [1]: 24.6 µM
selectivity ratio [2]: 10.8
Activity (MDA-MB-231 [3]): Tde
Activity (MDA-MB-231 [4]): Dose-Dependent Effect
Activity (MDA-MB-231 [5]): 54.33%
Activity (MDA-MB-231 [6]): 64%
Activity (MDA-MB-231 [7]): 66.67%
Activity (MDA-MB-231 [8]): Active
Activity (MDA-MB-231 [9]): 16.77%
Activity (MDA-MB-231 [10]): Dose-Dependent Effect
Activity (MDA-MB-231 [11]): Active
Activity (MDA-MB-231 [12]): Active
Activity (MDA-MB-231 [13]): Active
Activity (MDA-MB-231 [14]): Active
Activity (MDA-MB-231 [15]): Dose-Dependent Effect
Activity (MDA-MB-231 [16]): inactive
Activity (MDA-MB-231 [17]): Active
fold change (FC) (MDA-MB-231 [18]): 0.63
Activity (MDA-MB-231 [19]): Active
inhibition (MDA-MB-231 [20]): Dose-Dependent Effect
inhibition (MDA-MB-231 [21]): Dose-Dependent Effect
inhibition [22]: Dose-Dependent Effect
inhibition [23]: Dose-Dependent Effect
inhibition [24]: Dose-Dependent Effect
inhibition [25]: Dose-Dependent Effect
inhibition [26]: Dose-Dependent Effect
inhibition (MDA-MB-231 [27]): inactive
inhibition (MDA-MB-231 [28]): inactive
inhibition [29]: inactive
inhibition [30]: inactive
inhibition [31]: inactive
Activity (MDA-MB-231 [32]): 18.5%
